# Read-outs that look alike come from different tables or passages of the source.
# How the values were obtained:
# [1] = tested on: C. difficile (NCTC 11204 and thirty-two clinical isolates); test: Minimum Inhibitory Concentration (MIC) against C. difficile, microtiter plate, anaerobic, 48 hours; type: cell-based, Clostridium difficile; conditions: Clostridioides difficile, read-out: MIC
# Description: (§1) Compounds 4PYcq and 4PYOfi were screened against one NCTC strain and thirty-two clinical isolates of Clostridium difficile as described below.
# (§2) The antimicrobial compounds were prepared by adding 5.12 mg of each compound to 1 ml of DMSO. From each solution 100 μl was then aseptically transferred into 1 ml of sterile distilled water to give a concentration of 512 μg/ml. 100 μl of each diluted compound was then added to the first well of a sterile 96-well microliter plate. Serial dilutions were performed to give a concentration range spanning from 0 to 512 μg/ml of each compound. The microtiter plate containing the antimicrobials was left to equilibrate in an anaerobic cabinet for 3 hours before the addition of C. difficile cells. An overnight culture of C. difficile (NCTC 11204) was standardized to an OD^600 of 0.04 (approximately 10^6 CFU/ml), using Wilkins Chalgren broth and was vortexed for 60 seconds to ensure there was a uniform suspension. 100 μl of standardized culture was then added to each well of the microtiter plate, containing the equilibrated antimicrobials. The final concentrations of the antimicrobials in the wells therefore ranged from […] and the concentration of the culture was 10^5 CFU/ml in each well. The microtiter plate was incubated at 37° C., for 48 hours under anaerobic conditions. The MIC was determined as the lowest concentration of antimicrobial agent inhibiting the total growth of C. difficile cells. After incubation, the total solution from each well was aseptically spread onto a separate Wilkins chalgren agar plate. Plates were incubated for 48 hours, at 37° C., under anaerobic conditions. The number of colonies on each plate was counted after incubation and the MBC was determined as the lowest concentration of the antimicrobial agent at which 99.9% of organisms in the original inoculum were killed.
# Acinetobater spp. = test: activity against Acinetobacter spp.; type: cell-based; conditions: Gram-negative bacterium
# Propionibacterium acnes = test: MIC against Propionibacterium acnes, microtitre double dilution in BHI; type: cell-based; conditions: Cutibacterium acnes, read-out: MIC
# Description: Compounds 4PYcq and 4PYOfi were screened against one NCTC stain and seven clinical isolates of Propionibacterium acnes as described below.
# Bacterial strains of Propionibacterium acnes, stored on beads at −20° C., were plated onto Brain heart infusion (BHI) agar plates. The cultures were incubated anaerobically for 4 days at 37° C.
# Bacterial suspensions were prepared by diluting bacterial suspensions with BHI to obtain bacterial concentrations approximately 2×10^6 cfu/ml.
# The test antimicrobial compounds were prepared by diluting the compound with appropriate nutrient broth to obtain correct stock solution. 50 μl of BHI were aliquoted onto the wells of the round-bottomed microtitre plate. 50 μl of the antimicrobial compounds were added onto the wells in the first column of the plate and several serial double dilutions were performed along the wells on each row. Following the series of double dilutions of the test compound the bacterial suspension were added onto each well except on the last column which served as a negative control. The lowest concentration of the test compound which inhibited bacterial growth was regarded as MIC of the compound.
# [2] = tested on: C. difficile (NCTC 11204 and thirty-two clinical isolates); test: Minimum Bactericidal Concentration (MBC) against C. difficile, 99.9% kill; type: cell-based, Clostridium difficile; conditions: Clostridioides difficile, read-out: MBC
# Description: as §1, §2
# [3] = Clostridium difficile Isolate 1
# [4] = Clostridium difficile Isolate 2
# [5] = Clostridium difficile Isolate 3
# [6] = Clostridium difficile Isolate 4
# [7] = Clostridium difficile Isolate 5
# [8] = Clostridium difficile Isolate 6
# [9] = Clostridium difficile Isolate 7
# [10] = Clostridium difficile Isolate 8
# [11] = Clostridium difficile Isolate 9
# [12] = Clostridium difficile Isolate 10
# [13] = Clostridium difficile Isolate 11
# [14] = Clostridium difficile Isolate 12
# [15] = Clostridium difficile Isolate 13
# [16] = Clostridium difficile Isolate 14
# [17] = Clostridium difficile Isolate 15
# [18] = Clostridium difficile Isolate 16
# [19] = Clostridium difficile Isolate 17
# [20] = Clostridium difficile Isolate 18
# [21] = Clostridium difficile Isolate 19
# [22] = Clostridium difficile Isolate 20
# [23] = Clostridium difficile Isolate 21
# [24] = Clostridium difficile Isolate 22
# [25] = Clostridium difficile Isolate 23
# [26] = Clostridium difficile Isolate 24
# [27] = Clostridium difficile Isolate 25
# [28] = Clostridium difficile Isolate 26
# [29] = Clostridium difficile Isolate 27
# [30] = Clostridium difficile Isolate 28
# [31] = Clostridium difficile Isolate 29
# [32] = Clostridium difficile Isolate 30
# [33] = Clostridium difficile Isolate 31
# [34] = Clostridium difficile Isolate 32
# [35] = Clostridium difficile NCTC 11204
smiles,measurement,setting,value
CC(C)(C)c1cc(/C=N/N=C(\N)c2ccncc2)c(O)c(C(C)(C)C)c1 [Compound 4PYcq],MIC,[1]; [3],4 to 8 µg/mL
same,MIC,[1]; [4],2 to 4 µg/mL
same,MIC,[1]; [5],2 to 4 µg/mL
same,MIC,[1]; [6],2 to 4 µg/mL
same,MIC,[1]; [7],2 to 4 µg/mL
same,MIC,[1]; [8],2 to 4 µg/mL
same,MIC,[1]; [9],4 to 8 µg/mL
same,MIC,[1]; [10],4 to 8 µg/mL
same,MIC,[1]; [11],4 to 8 µg/mL
same,MIC,[1]; [12],2 to 4 µg/mL
same,MIC,[1]; [13],2 to 4 µg/mL
same,MIC,[1]; [14],4 to 8 µg/mL
same,MIC,[1]; [15],4 to 8 µg/mL
same,MIC,[1]; [16],4 to 8 µg/mL
same,MIC,[1]; [17],4 to 8 µg/mL
same,MIC,[1]; [18],4 to 8 µg/mL
same,MIC,[1]; [19],2 to 4 µg/mL
same,MIC,[1]; [20],2 to 4 µg/mL
same,MIC,[1]; [21],4 to 8 µg/mL
same,MIC,[1]; [22],2 to 4 µg/mL
same,MIC,[1]; [23],4 to 8 µg/mL
same,MIC,[1]; [24],2 to 4 µg/mL
same,MIC,[1]; [25],2 to 4 µg/mL
same,MIC,[1]; [26],4 to 8 µg/mL
same,MIC,[1]; [27],4 to 8 µg/mL
same,MIC,[1]; [28],4 to 8 µg/mL
same,MIC,[1]; [29],4 to 8 µg/mL
same,MIC,[1]; [30],4 to 8 µg/mL
same,MIC,[1]; [31],4 to 8 µg/mL
same,MIC,[1]; [32],2 to 4 µg/mL
same,MIC,[1]; [33],4 to 8 µg/mL
same,MIC,[1]; [34],4 to 8 µg/mL
same,MIC,[1]; [35],4 to 8 µg/mL
same,activity against Acinetobater spp. (in words),Acinetobater spp.,inactive
same,MIC,"Propionibacterium acnes; NCTC737, P. acnes NCTC 737",64 to 128 µg/mL
same,MIC,Propionibacterium acnes; P. acnes Isolate 1,4 to 8 µg/mL
same,MIC,Propionibacterium acnes; P. acnes Isolate 2,32 to 64 µg/mL
same,MIC,Propionibacterium acnes; P. acnes Isolate 3,2 to 4 µg/mL
same,MIC,Propionibacterium acnes; P. acnes Isolate 4,128 to 256 µg/mL
same,MIC,Propionibacterium acnes; P. acnes Isolate 5,64 to 128 µg/mL
same,MIC,Propionibacterium acnes; P. acnes Isolate 6,64 to 128 µg/mL
same,MIC,Propionibacterium acnes; P. acnes Isolate 7,> 256 µg/mL
same,MBC,[2]; [3],4 to 8 µg/mL
same,MBC,[2]; [4],4 to 8 µg/mL
same,MBC,[2]; [5],2 to 4 µg/mL
same,MBC,[2]; [6],2 to 4 µg/mL
same,MBC,[2]; [7],2 to 4 µg/mL
same,MBC,[2]; [8],2 to 4 µg/mL
same,MBC,[2]; [9],4 to 8 µg/mL
same,MBC,[2]; [10],4 to 8 µg/mL
same,MBC,[2]; [11],4 to 8 µg/mL
same,MBC,[2]; [12],4 to 8 µg/mL
same,MBC,[2]; [13],2 to 4 µg/mL
same,MBC,[2]; [14],4 to 8 µg/mL
same,MBC,[2]; [15],4 to 8 µg/mL
same,MBC,[2]; [16],4 to 8 µg/mL
same,MBC,[2]; [17],4 to 8 µg/mL
same,MBC,[2]; [18],4 to 8 µg/mL
same,MBC,[2]; [19],4 to 8 µg/mL
same,MBC,[2]; [20],2 to 4 µg/mL
same,MBC,[2]; [21],4 to 8 µg/mL
same,MBC,[2]; [22],2 to 4 µg/mL
same,MBC,[2]; [23],4 to 8 µg/mL
same,MBC,[2]; [24],2 to 4 µg/mL
same,MBC,[2]; [25],2 to 4 µg/mL
same,MBC,[2]; [26],4 to 8 µg/mL
same,MBC,[2]; [27],4 to 8 µg/mL
same,MBC,[2]; [28],8 to 16 µg/mL
same,MBC,[2]; [29],4 to 8 µg/mL
same,MBC,[2]; [30],4 to 8 µg/mL
same,MBC,[2]; [31],4 to 8 µg/mL
same,MBC,[2]; [32],2 to 4 µg/mL
same,MBC,[2]; [33],4 to 8 µg/mL
same,MBC,[2]; [34],8 to 16 µg/mL
same,MBC,[2]; [35],4 to 8 µg/mL

# — patent US20080096894A1, “Anti-Bacterial Compounds” (ASTON UNIVERSITY, priority 2005, published 2008)
